Source: PubChem BioAssay (NCI)
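Five concentrations, 48 hours, 96-well plates. GI50 = concentration required for 50% inhibition of growth. TGI marks complete inhibition of growth.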

Tests used:
Test in all cases: DTP human tumour cell line panel, 48 h
SF-268 CNS = tested on: SF-268 CNS
HT29 colon = tested on: HT29 colon
CAKI-1 renal = tested on: CAKI-1 renal
EKVX NSCLC = tested on: EKVX NSCLC
M14 melanoma = tested on: M14 melanoma
MALME-3M melanoma = tested on: MALME-3M melanoma
UACC-62 melanoma = tested on: UACC-62 melanoma
UO-31 renal = tested on: UO-31 renal
A549 NSCLC = tested on: A549 NSCLC
OVCAR-5 ovarian = tested on: OVCAR-5 ovarian
UACC-257 melanoma = tested on: UACC-257 melanoma
NCI/ADR-RES ovarian = tested on: NCI/ADR-RES ovarian
SK-OV-3 ovarian = tested on: SK-OV-3 ovarian
HOP-62 NSCLC = tested on: HOP-62 NSCLC
SK-MEL-2 melanoma = tested on: SK-MEL-2 melanoma
MDA-MB-231 breast = tested on: MDA-MB-231 breast
BT-549 breast = tested on: BT-549 breast
A498 renal = tested on: A498 renal
SF-539 CNS = tested on: SF-539 CNS
SR leukemia = tested on: SR leukemia
TK-10 renal = tested on: TK-10 renal
RXF 393 renal = tested on: RXF 393 renal
IGROV1 ovarian = tested on: IGROV1 ovarian
LOX IMVI melanoma = tested on: LOX IMVI melanoma
K-562 leukemia = tested on: K-562 leukemia
SNB-75 CNS = tested on: SNB-75 CNS
MDA-MB-435 = tested on: MDA-MB-435
SK-MEL-28 melanoma = tested on: SK-MEL-28 melanoma
NCI-H23 lung = tested on: NCI-H23 lung
MCF7 breast = tested on: MCF7 breast
SF-295 CNS = tested on: SF-295 CNS
MOLT-4 leukemia = tested on: MOLT-4 leukemia
NCI-H460 lung = tested on: NCI-H460 lung
U251 CNS = tested on: U251 CNS
HCT-15 colon = tested on: HCT-15 colon
KM12 colon = tested on: KM12 colon
NCI-H522 lung = tested on: NCI-H522 lung
ACHN renal = tested on: ACHN renal
OVCAR-8 ovarian = tested on: OVCAR-8 ovarian
PC-3 prostate = tested on: PC-3 prostate
SNB-19 CNS = tested on: SNB-19 CNS
HCT-116 colon = tested on: HCT-116 colon
HCC-2998 colon = tested on: HCC-2998 colon
HS 578T breast = tested on: HS 578T breast
HL-60(TB) leukemia = tested on: HL-60(TB) leukemia
HOP-92 NSCLC = tested on: HOP-92 NSCLC
RPMI-8226 leukemia = tested on: RPMI-8226 leukemia
DU-145 prostate = tested on: DU-145 prostate
CCRF-CEM leukemia = tested on: CCRF-CEM leukemia
SW-620 colon = tested on: SW-620 colon
SK-MEL-5 melanoma = tested on: SK-MEL-5 melanoma
OVCAR-4 ovarian = tested on: OVCAR-4 ovarian
NCI-H226 lung = tested on: NCI-H226 lung
T-47D breast = tested on: T-47D breast
786-0 renal = tested on: 786-0 renal
SN12C renal = tested on: SN12C renal
OVCAR-3 ovarian = tested on: OVCAR-3 ovarian
COLO 205 colon = tested on: COLO 205 colon

SMILES: CCCCCn1ncc(-c2c(O)c(O)cc3c(O)c(-c4c(C)cc5c(-c6cnn(CCCCC)n6)c(O)c(O)cc5c4O)c(C)cc23)n1
- GI50 (SF-268 CNS): 147 nM
- TGI (SF-268 CNS): 4270 nM
- GI50 (HT29 colon): 120 nM
- TGI (HT29 colon): 3450 nM
- GI50 (CAKI-1 renal): 156 nM
- TGI (CAKI-1 renal): 4240 nM
- GI50 (EKVX NSCLC): 177 nM
- TGI (EKVX NSCLC): 4610 nM
- GI50 (M14 melanoma): 182 nM
- TGI (M14 melanoma): 2890 nM
- GI50 (MALME-3M melanoma): 138 nM
- TGI (MALME-3M melanoma): 4730 nM
- GI50 (UACC-62 melanoma): 145 nM
- TGI (UACC-62 melanoma): 1270 nM
- GI50 (UO-31 renal): 180 nM
- TGI (UO-31 renal): 1840 nM
- GI50 (A549 NSCLC): 117 nM
- TGI (A549 NSCLC): 4470 nM
- GI50 (OVCAR-5 ovarian): 222 nM
- TGI (OVCAR-5 ovarian): 6570 nM
- GI50 (UACC-257 melanoma): 792 nM
- TGI (UACC-257 melanoma): 6120 nM
- GI50 (NCI/ADR-RES ovarian): 903 nM
- TGI (NCI/ADR-RES ovarian): 5320 nM
- GI50 (SK-OV-3 ovarian): 142 nM
- TGI (SK-OV-3 ovarian): 2640 nM
- GI50 (HOP-62 NSCLC): 140 nM
- TGI (HOP-62 NSCLC): 2750 nM
- GI50 (SK-MEL-2 melanoma): 147 nM
- TGI (SK-MEL-2 melanoma): 6810 nM
- GI50 (MDA-MB-231 breast): 182 nM
- TGI (MDA-MB-231 breast): 5670 nM
- GI50 (BT-549 breast): 91.3 nM
- TGI (BT-549 breast): 5090 nM
- GI50 (A498 renal): 3990 nM
- TGI (A498 renal): 8250 nM
- GI50 (SF-539 CNS): 135 nM
- TGI (SF-539 CNS): 4060 nM
- GI50 (SR leukemia): 201 nM
- TGI (SR leukemia): 7270 nM
- GI50 (TK-10 renal): 126 nM
- TGI (TK-10 renal): 5050 nM
- GI50 (RXF 393 renal): 112 nM
- TGI (RXF 393 renal): 6450 nM
- GI50 (IGROV1 ovarian): 182 nM
- TGI (IGROV1 ovarian): 4750 nM
- GI50 (LOX IMVI melanoma): 90.8 nM
- TGI (LOX IMVI melanoma): 1160 nM
- GI50 (K-562 leukemia): 83.7 nM
- TGI (K-562 leukemia): 8440 nM
- GI50 (SNB-75 CNS): 165 nM
- TGI (SNB-75 CNS): 3840 nM
- GI50 (MDA-MB-435): 109 nM
- TGI (MDA-MB-435): 5020 nM
- GI50 (SK-MEL-28 melanoma): 306 nM
- TGI (SK-MEL-28 melanoma): 6360 nM
- GI50 (NCI-H23 lung): 78 nM
- TGI (NCI-H23 lung): 3660 nM
- GI50 (MCF7 breast): 87.4 nM
- TGI (MCF7 breast): 4240 nM
- GI50 (SF-295 CNS): 108 nM
- TGI (SF-295 CNS): 4600 nM
- GI50 (MOLT-4 leukemia): 89.8 nM
- TGI (MOLT-4 leukemia): 8280 nM
- GI50 (NCI-H460 lung): 25.8 nM
- TGI (NCI-H460 lung): 465 nM
- GI50 (U251 CNS): 35.1 nM
- TGI (U251 CNS): 1890 nM
- GI50 (HCT-15 colon): 97.6 nM
- TGI (HCT-15 colon): 5010 nM
- GI50 (KM12 colon): 101 nM
- TGI (KM12 colon): 5250 nM
- GI50 (NCI-H522 lung): 98.4 nM
- TGI (NCI-H522 lung): 1070 nM
- GI50 (ACHN renal): 128 nM
- TGI (ACHN renal): 4270 nM
- GI50 (OVCAR-8 ovarian): 125 nM
- TGI (OVCAR-8 ovarian): 3200 nM
- GI50 (PC-3 prostate): 147 nM
- TGI (PC-3 prostate): 2530 nM
- GI50 (SNB-19 CNS): 115 nM
- TGI (SNB-19 CNS): 5260 nM
- GI50 (HCT-116 colon): 26.2 nM
- TGI (HCT-116 colon): 4070 nM
- GI50 (HCC-2998 colon): 471 nM
- TGI (HCC-2998 colon): 4240 nM
- GI50 (HS 578T breast): 152 nM
- TGI (HS 578T breast): 8870 nM
- GI50 (HL-60(TB) leukemia): 124 nM
- TGI (HL-60(TB) leukemia): 3570 nM
- GI50 (HOP-92 NSCLC): 72.3 nM
- TGI (HOP-92 NSCLC): 242 nM
- GI50 (RPMI-8226 leukemia): 109 nM
- TGI (RPMI-8226 leukemia): 4900 nM
- GI50 (DU-145 prostate): 64.7 nM
- TGI (DU-145 prostate): 6020 nM
- GI50 (CCRF-CEM leukemia): 92.7 nM
- TGI (CCRF-CEM leukemia): 6300 nM
- GI50 (SW-620 colon): 117 nM
- TGI (SW-620 colon): 6260 nM
- GI50 (SK-MEL-5 melanoma): 388 nM
- TGI (SK-MEL-5 melanoma): 2310 nM
- GI50 (OVCAR-4 ovarian): 176 nM
- TGI (OVCAR-4 ovarian): 4490 nM
- GI50 (NCI-H226 lung): 141 nM
- TGI (NCI-H226 lung): 2800 nM
- GI50 (T-47D breast): 62.7 nM
- TGI (T-47D breast): 1420 nM
- GI50 (786-0 renal): 171 nM
- TGI (786-0 renal): 2610 nM
- GI50 (SN12C renal): 124 nM
- TGI (SN12C renal): 5750 nM
- GI50 (OVCAR-3 ovarian): 91.9 nM
- TGI (OVCAR-3 ovarian): 4620 nM
- GI50 (COLO 205 colon): 595 nM
- TGI (COLO 205 colon): 3220 nM
